Structures can show the parent of a compound that is named as a salt. Where two headings read alike, the source gives them in different places.
Target: SARS-CoV-2 3CLpro (Severe acute respiratory syndrome coronavirus 2, UniProt P0DTD1)
Test: biochemical
Type: biochemical
Set-up: Replicate_1 / Replicate_2 / mean / mean (LOPAC_screen_w_protease): unit not given here
Conditions: for mean (LOPAC screen with protease) / Replicate_1 (LOPAC screen with protease) / Replicate_2 (LOPAC screen with protease): primary screen at 5 µM; for inhibition at 5 µM: 4 h
[1] = sheet LOPAC_screen_w_protease, primary screen with protease, 5 µM, mean of two replicates
[2] = sheet LOPAC_screen_w_protease, primary screen with protease, 5 µM, replicate 1
[3] = sheet LOPAC_screen_w_protease, primary screen with protease, 5 µM, replicate 2
[4] = sheet LOPAC_screen_w_protease, mean of two replicates
[5] = sheet LOPAC_screen_w_protease, replicate 1
[6] = sheet LOPAC_screen_w_protease, replicate 2
[7] = sheet LOPAC_screen_w_protease, LOPAC1280 at 5 µM, mean of two replicates, read-out: mean
[8] = sheet LOPAC_screen_w_protease, LOPAC1280 at 5 µM, replicate 1, read-out: Replicate_1
[9] = sheet LOPAC_screen_w_protease, LOPAC1280 at 5 µM, replicate 2, read-out: Replicate_2
[10] = LOPAC1280 primary screen with protease, 5 µM compound, replicate 1, read-out: Replicate_1 (LOPAC_screen_w_protease)
[11] = LOPAC1280 primary screen with protease, 5 µM compound, replicate 2, read-out: Replicate_2 (LOPAC_screen_w_protease)
[12] = LOPAC1280 primary screen with protease, 5 µM compound, mean of two replicates
[13] = sheet LOPAC_screen_w_protease, primary screen with protease, mean of two replicates
[14] = sheet LOPAC_screen_w_protease, primary screen with protease, replicate 1
[15] = sheet LOPAC_screen_w_protease, primary screen with protease, replicate 2
[16] = sheet LOPAC_screen_w_protease, primary screen with protease, 5 µM, mean of two replicates, read-out: mean
[17] = sheet LOPAC_screen_w_protease, primary screen with protease, 5 µM, replicate 1, read-out: Replicate_1
[18] = sheet LOPAC_screen_w_protease, primary screen with protease, 5 µM, replicate 2, read-out: Replicate_2
[19] = LOPAC1280 primary screen with protease, 5 µM compound, mean of the two replicates
[20] = LOPAC1280 primary screen with protease, 5 µM compound, replicate 1
[21] = LOPAC1280 primary screen with protease, 5 µM compound, replicate 2
[22] = sheet LOPAC_screen_w_protease, LOPAC1280 primary screen at 5 µM, with protease, replicate 1
[23] = sheet LOPAC_screen_w_protease, LOPAC1280 primary screen at 5 µM, with protease, replicate 2
[24] = sheet LOPAC_screen_w_protease, primary screen of LOPAC1280 at 5 µM with protease, mean of the two replicates, read-out: mean
[25] = sheet LOPAC_screen_w_protease, primary screen of LOPAC1280 at 5 µM with protease, replicate 1, read-out: Replicate_1
[26] = sheet LOPAC_screen_w_protease, primary screen of LOPAC1280 at 5 µM with protease, replicate 2, read-out: Replicate_2
[27] = sheet LOPAC_screen_w_protease, LOPAC1280 primary screen at 5 µM, with protease, mean of two replicates
[28] = sheet LOPAC_screen_w_protease, primary screen with protease, compound at 5 µM, mean of two replicates
[29] = sheet LOPAC_screen_w_protease, primary screen with protease, compound at 5 µM, replicate 1
[30] = sheet LOPAC_screen_w_protease, primary screen with protease, compound at 5 µM, replicate 2

SMILES: Br.CCCN(CCC)[C@@H]1CCc2cccc(O)c2C1 [R-(+)-8-Hydroxy-DPAT hydrobromide]
- mean [1]: -0.6201
- Replicate_1 [2]: 2.2019
- Replicate_2 [3]: -3.442

SMILES: Nc1nc(Nc2ccccc2)nc2c1ncn2[C@@H]1O[C@H](CO)[C@@H](O)[C@H]1O [2-Phenylaminoadenosine]
- mean [1]: -0.1756
- Replicate_1 [2]: -0.3497
- Replicate_2 [3]: -0.001377

SMILES: CC(C)N(CCC(=O)c1ccc2ccccc2c1)Cc1ccccc1.Cl [ZM 39923 hydrochloride]
- mean (LOPAC screen with protease) [4]: 93.4745
- Replicate_1 (LOPAC screen with protease) [5]: 92.2854
- Replicate_2 (LOPAC screen with protease) [6]: 94.6636

SMILES: CCN(CC)CCNC(=O)c1cc(S(C)(=O)=O)ccc1OC [Tiapride hydrochloride]
- inhibition at 5 µM [7]: 1.21%
- inhibition at 5 µM [8]: 1.45%
- inhibition at 5 µM [9]: 0.964%

SMILES: Nc1ncnc2c1ncn2[C@@H]1O[C@H](CO)[C@@H](O)[C@H]1O [Adenosine]
- inhibition at 5 µM (read-out: Replicate_1): 1.26%
- inhibition at 5 µM (read-out: Replicate_2): 3.55%
- inhibition at 5 µM (read-out: mean): 2.4%

SMILES: C#CCN[C@H](C)Cc1ccccc1.Cl [R-(-)-Desmethyldeprenyl hydrochloride]
- Replicate_1 (LOPAC_screen_w_protease): 3.419
- Replicate_2 (LOPAC_screen_w_protease): 0.5348
- mean (LOPAC_screen_w_protease): 1.9771

SMILES: CC1Cc2cc3c(cc2C(c2ccc(N)cc2)=NN1)OCO3.Cl (stereo not drawn) [GYKI 52895]
- mean (sheet LOPAC_screen_w_protease, LOPAC1280 primary screen with protease, 5 µM compound, mean of the two replicates): 5.365
- Replicate_1 (sheet LOPAC_screen_w_protease, LOPAC1280 primary screen with protease, 5 µM compound, replicate 1): 5.021
- Replicate_2 (sheet LOPAC_screen_w_protease, LOPAC1280 primary screen with protease, 5 µM compound, replicate 2): 5.7079

SMILES: COc1ccc(CC(C)NCC(O)c2ccc(O)c(NC=O)c2)cc1 (stereo not drawn) [Formoterol]
- inhibition at 5 µM [10]: 1.5%
- inhibition at 5 µM [11]: 1.19%
- mean (LOPAC_screen_w_protease) [12]: 1.3452

SMILES: Nc1ccc(N2C(=O)c3ccccc3C2=O)c(Cl)c1 [N-(4-Amino-2-chlorophenyl)phthalimide]
- mean [13]: 2.38
- Replicate_1 [14]: 2.0208
- Replicate_2 [15]: 2.74

SMILES: CC(=O)c1c(O)c(C)c(O)c(Cc2c(O)c3c(c(C(=O)/C=C/c4ccccc4)c2O)OC(C)(C)C=C3)c1O [Rottlerin]
- inhibition at 5 µM (read-out: Replicate_1): 4.21%
- inhibition at 5 µM (read-out: Replicate_2): 5.11%
- inhibition at 5 µM (read-out: mean): 4.66%

SMILES: COC(=O)[C@@H]1[C@H]2C[C@H]3c4[nH]c5ccccc5c4CCN3C[C@@H]2CC[C@@H]1O [Yohimbine hydrochloride]
- inhibition at 5 µM [16]: 0.269%
- inhibition at 5 µM [17]: -0.997%
- inhibition at 5 µM [18]: 1.53%

SMILES: NCCCP(=O)(O)O [3-Aminopropylphosphonic acid]
- mean (LOPAC_screen_w_protease) [19]: 1.904
- Replicate_1 (LOPAC_screen_w_protease) [20]: 3.261
- Replicate_2 (LOPAC_screen_w_protease) [21]: 0.5459

SMILES: C[C@@H]1O[C@@H](O[C@H]2C[C@@H](O)[C@]3(CO)[C@H]4[C@H](O)C[C@]5(C)[C@@H](C6=CC(=O)OC6)CC[C@]5(O)[C@@H]4CC[C@]3(O)C2)[C@H](O)[C@H](O)[C@H]1O [Ouabain]
- inhibition at 5 µM (read-out: Replicate_1): 3.98%
- inhibition at 5 µM (read-out: Replicate_2): 1.68%
- inhibition at 5 µM (read-out: mean): 2.83%

SMILES: COc1ccccc1N1CCN(CCCCNC(=O)c2ccc3ccccc3c2)CC1 [BP 897]
- inhibition at 5 µM [10]: 0.668%
- inhibition at 5 µM [11]: 1.98%
- mean (LOPAC_screen_w_protease) [12]: 1.323

SMILES: Cc1scc2c1N(C(=O)CN1CCN(C)CC1)c1ccccc1NC2=O [Telenzepine dihydrochloride]
- inhibition at 5 µM [16]: 0.413%
- inhibition at 5 µM [17]: -0.915%
- inhibition at 5 µM [18]: 1.74%

SMILES: C=C[C@@]1(C)CC(=O)[C@]2(O)[C@@]3(C)[C@@H](O)CCC(C)(C)[C@@H]3[C@H](O)[C@H](OC(C)=O)[C@@]2(C)O1 [Forskolin]
- inhibition at 5 µM [7]: 1.29%
- inhibition at 5 µM [8]: 1.85%
- inhibition at 5 µM [9]: 0.734%

SMILES: Clc1ccccc1C(c1ccccc1)(c1ccccc1)n1ccnc1 [Clotrimazole]
- inhibition at 5 µM (read-out: Replicate_1): 3.08%
- inhibition at 5 µM (read-out: Replicate_2): 3.07%
- inhibition at 5 µM (read-out: mean): 3.07%

SMILES: C[N+](C)(C)CCC(=O)c1cccc2ccccc12.[I-]
- mean (LOPAC screen with protease) [4]: 102.503
- Replicate_1 (LOPAC screen with protease) [5]: 102.129
- Replicate_2 (LOPAC screen with protease) [6]: 102.878

SMILES: COc1ccc(Cc2nccc3cc(OC)c(OC)cc23)cc1OC [Papaverine hydrochloride]
- inhibition at 5 µM (sheet LOPAC_screen_w_protease, LOPAC1280 primary screen with protease, 5 µM compound, mean of the two replicates, read-out: mean): 5.63%
- inhibition at 5 µM (sheet LOPAC_screen_w_protease, LOPAC1280 primary screen with protease, 5 µM compound, replicate 1, read-out: Replicate_1): 5.9%
- inhibition at 5 µM (sheet LOPAC_screen_w_protease, LOPAC1280 primary screen with protease, 5 µM compound, replicate 2, read-out: Replicate_2): 5.37%

SMILES: COc1cc(C(O)CO)ccc1OS(=O)(=O)[O-].[K+] (stereo not drawn) [MHPG sulfate potassium]
- mean (sheet LOPAC_screen_w_protease, LOPAC1280 primary screen at 5 µM, with protease, mean of the two replicates): 0.6725
- Replicate_1 [22]: 2.348
- Replicate_2 [23]: -1.003

SMILES: NC(=NCc1ccccc1)NC(=O)c1nc(Cl)c(N)nc1N [Benzamil hydrochloride]
- inhibition at 5 µM [10]: 1.66%
- inhibition at 5 µM [11]: 1.83%
- mean (LOPAC_screen_w_protease) [19]: 1.743

SMILES: CN1CCC(=C2c3ccccc3CC(=O)c3sccc32)CC1 [Ketotifen fumarate]
- inhibition at 5 µM [24]: 3.16%
- inhibition at 5 µM [25]: 4.97%
- inhibition at 5 µM [26]: 1.34%

SMILES: O=C(c1cc(O)c(O)c([N+](=O)[O-])c1)c1ccccc1F [Ro 41-0960]
- mean [27]: -0.9763
- Replicate_1 [22]: -1.184
- Replicate_2 [23]: -0.7687

SMILES: Br.CCCN(CCC)[C@@H]1CCc2ccc(O)cc2C1 [R-(+)-7-Hydroxy-DPAT hydrobromide]
- mean [13]: 2.2447
- Replicate_1 [14]: 2.253
- Replicate_2 [15]: 2.237

SMILES: CCCn1c(=O)c2[nH]c(-c3ccc(OCC(=O)NCCN)cc3)nc2n(CCC)c1=O [Xanthine amine congener]
- mean [27]: -1.654
- Replicate_1 [22]: -1.399
- Replicate_2 [23]: -1.91

SMILES: N#C/C(=C\c1ccc(O)c(O)c1)C(=O)Nc1ccccc1 [Tyrphostin AG 494]
- inhibition at 5 µM [24]: 4.07%
- inhibition at 5 µM [25]: 4.44%
- inhibition at 5 µM [26]: 3.69%

SMILES: CC(C)[C@@]1(NC(=O)[C@@H]2C[C@@H]3c4cccc5[nH]cc(c45)C[C@H]3N(C)C2)O[C@@]2(O)[C@@H]3CCCN3C(=O)[C@H](Cc3ccccc3)N2C1=O.CS(=O)(=O)O [Dihydroergocristine methanesulfonate]
- mean [28]: 2.761
- Replicate_1 [29]: 2.962
- Replicate_2 [30]: 2.561

SMILES: CC(C)NP(=O)(NC(C)C)OP(=O)(NC(C)C)NC(C)C [Tetraisopropyl pyrophosphoramide]
- inhibition at 5 µM (read-out: Replicate_1): 1.18%
- inhibition at 5 µM (read-out: Replicate_2): -0.275%
- inhibition at 5 µM (read-out: mean): 0.452%

SMILES: COC1(C2=NCCN2)COc2ccccc2O1.Cl (stereo not drawn) [RX 821002 hydrochloride]
- mean [1]: 0.0583
- Replicate_1 [2]: -1.138
- Replicate_2 [3]: 1.255

SMILES: CP(=O)(O)CCCN.Cl [SKF 97541 hydrochloride]
- mean (LOPAC_screen_w_protease) [12]: 1.5203
- Replicate_1 (LOPAC_screen_w_protease) [20]: 0.8621
- Replicate_2 (LOPAC_screen_w_protease) [21]: 2.1785

SMILES: O=C1CCC(N2C(=O)c3ccccc3C2=O)C(=O)N1 (racemic) [(±)-Thalidomide]
- mean (sheet LOPAC_screen_w_protease, LOPAC1280 at 5 µM, mean of two replicates): 1.21
- Replicate_1 (sheet LOPAC_screen_w_protease, LOPAC1280 at 5 µM, replicate 1): 0.4169
- Replicate_2 (sheet LOPAC_screen_w_protease, LOPAC1280 at 5 µM, replicate 2): 2.003

SMILES: N#CC(=Cc1ccc(O)c(O)c1)C(=O)NCCc1ccccc1 [Tyrphostin AG 698]
- mean [28]: 2.9723
- Replicate_1 [29]: 3.137
- Replicate_2 [30]: 2.808

SMILES: N[C@@H](Cn1cc(I)c(=O)[nH]c1=O)C(=O)O [S-5-Iodowillardiine]
- mean (LOPAC screen with protease) [4]: 6.582
- Replicate_1 (LOPAC screen with protease) [5]: 5.993
- Replicate_2 (LOPAC screen with protease) [6]: 7.171

SMILES: OC[C@H]1O[C@@H](n2cnc3c(Nc4ccccc4)ncnc32)[C@H](O)[C@@H]1O [N6-Phenyladenosine]
- inhibition at 5 µM [10]: 2.83%
- inhibition at 5 µM [11]: 0.0632%
- mean (LOPAC_screen_w_protease) [12]: 1.447

SMILES: NCCc1c[nH]c2ccc(C(N)=O)cc12.O=C(O)/C=C\C(=O)O [5-Carboxamidotryptamine maleate]
- mean (LOPAC_screen_w_protease) [19]: 1.776
- Replicate_1 (LOPAC_screen_w_protease) [20]: 2.928
- Replicate_2 (LOPAC_screen_w_protease) [21]: 0.6229
